Where two headings read alike, the source gives them in different places.
How the values were obtained:
[1] = tested on: secretion levels of IL-6 in PBMC cells; assay: Inhibition of LPS+IL-1β-induced IL-6 secretion in PBMC (IL-6 ELISA); assay type: cell-based; conditions: human PBMC, 24 h compound pre-incubation, 20 h stimulation
IRAK4 protein = target: T1, IRAK4 protein (Homo sapiens, UniProt Q9NWZ3); assay: IRAK4 protein degradation in THP1 cells (Western blot); assay type: cell-based; conditions: 24 h
T1 construct: Effects of Compounds on IRAK4 Protein Degradation in THP1 Cells; endogenous in cells; host or cells: THP-1 cells
T1 sequence (Q9NWZ3 1-460): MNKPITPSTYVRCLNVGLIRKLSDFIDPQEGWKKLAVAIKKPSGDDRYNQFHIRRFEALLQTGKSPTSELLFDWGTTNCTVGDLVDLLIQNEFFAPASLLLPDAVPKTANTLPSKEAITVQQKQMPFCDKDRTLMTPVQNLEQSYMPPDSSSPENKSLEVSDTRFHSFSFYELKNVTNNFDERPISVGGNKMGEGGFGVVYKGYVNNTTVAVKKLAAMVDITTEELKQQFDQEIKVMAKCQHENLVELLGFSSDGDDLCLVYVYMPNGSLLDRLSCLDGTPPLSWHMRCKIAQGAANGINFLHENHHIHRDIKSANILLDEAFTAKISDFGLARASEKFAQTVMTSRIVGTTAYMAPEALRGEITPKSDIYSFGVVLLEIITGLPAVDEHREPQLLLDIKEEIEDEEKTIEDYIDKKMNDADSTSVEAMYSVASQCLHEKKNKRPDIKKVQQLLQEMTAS
Experimental: THP-1 cells were inoculated into a 96-well cell culture plate, with 5×10^4 cells and 100 μL of a culture medium per well. The cell culture plate was cultured in an incubator with 5% CO2 at 37° C. overnight. 100 nl of a well-prepared compound stock solution and a compound-free DMSO stock solution were respectively added to cells per well. The cell culture plate was incubated in an incubator with 5% CO2 at 37° C. for 24 h. One protease inhibitor tablet and one phosphatase inhibitor tablet were added to 20 mL of a cell lysis buffer, and they were gently mixed until complete dissolution. DTT at a final concentration of 200 mM was added to a 4× sample preparation buffer to prepare a 4× sample preparation working solution. 20× electrophoretic buffer was diluted to 1× with ultrapure water. 20× transfer buffer was diluted to 1× with ultrapure water, and 20% methanol was added. […] IRAK4 protein primary antibody working solution: 20 μl of IRAK4 antibody added to 20 mL of a blocking solution; β-Actin primary antibody working solution: 2 μl of beta-actin (13E5) Rabbit mAb antibody added to 20 mL of a blocking solution. IRAK4 protein secondary antibody working solution: Donkey Anti-Goat IgG H&L (HRP) diluted 1/5,000 in a blocking solution; 3-Actin secondary antibody working solution: Anti-rabbit IgG, RP-linked antibody diluted 1/10,000 in a blocking solution. The cell culture plate was centrifuged at 3,000 rpm for 3 min, and most of the culture medium was carefully pipetted. The cell plate was inverted, and centrifuged at 300 rpm for 30 s. 45 μL of a lysis buffer was added to each well. The mixture was shaken at 300 rpm for 30 s, allowed to stand on ice for 30 min, and pipetted 30 times at 20 min. 6 μL of 4× sample preparation working solution was added to 18 μL of protein supernatant for sample preparation, and the mixture was heated at 70° C. for 10 min. Remaining protein samples were stored at −80° C. In the precast gel, 8 μl of sample was loaded into each well for electrophoresis at a constant voltage of 120 V for about 60 min, transferred using a PVDF membrane at a constant current of 300 mA for 1 h, then blocked with a blocking solution at room temperature for 1 h, and incubated in a primary antibody working solution at 4° C. overnight. The membrane was washed with 1×TBST buffer for 3×10 min. The secondary antibody working solution was incubated at room temperature for 1 h. The membrane was washed with 1×TBST buffer for 3×10 min, and a chromogenic solution was used for exposure and color development.

[2] = Pharmacokinetic experiment on mice (iv and ig); assay type: in vivo; conditions: mouse, plasma, BALB/c Mice; for bioavailability: ig 5.00 mg/kg vs iv 1.00 mg/kg, read-out: Oral bioavailability Fobs (%); for Cmax: read-out: Peak plasma concentration Cmax

DC50 (IRAK4 protein) | bioavailability ([2]; po) | AUC ([2]; po, ig, 5.00 mg/kg) | AUC(0-inf) ([2]; po, ig, 5.00 mg/kg) | Cmax ([2]; po, ig, 5.00 mg/kg) | AUC ([2]; iv, 1.00 mg/kg) | AUC(0-inf) ([2]; iv, 1.00 mg/kg) | Cmax ([2]; iv, 1.00 mg/kg) | SMILES | IC50 [1]
3.12 nM | 48.4% | 1770 ng·h/mL | 1920 ng·h/mL | 342 ng/mL | 790 ng·h/mL | 795 ng·h/mL | 276 ng/mL | Cc1nn(C2CCC(=O)NC2=O)c2cccc(N3CC4CN(C[C@H]5CC[C@H](n6cc7cc(NC(=O)c8cnn9cccnc89)c(N8CCOCC8)cc7n6)CC5)CC4C3)c12 (stereo partly drawn) [TM-57] | 8.67 nM
4.67 nM | 63% | 10100 ng·h/mL | 10100 ng·h/mL | 1300 ng/mL | 3220 ng·h/mL | 3220 ng·h/mL | 605 ng/mL | Cc1nn(C2CCC(=O)NC2=O)c2cncc(N3CCN(C[C@H]4CC[C@H](n5cc6cc(NC(=O)c7cnn8cccnc78)c(N7CCO[C@H](C)C7)cc6n5)CC4)CC3)c12 (stereo partly drawn) [TM-109] | 39.2 nM

From US20260146044A1, “AROMATIC COMPOUND, PHARMACEUTICAL COMPOSITION CONTAINING SAME, AND USE THEREOF” (Increland, priority 2023, published 2026)
